# Results published in patent US20200129524A1, “PERSONALIZED CONTRACEPTIVE FORMULATIONS” (Agile Therapeutics, Inc., priority 2017, published 2020).
# Values joined by “and” are separate entries in the source; they are usually repeats but may differ in a detail not shown here. Equal entries are not always repeated.
# Legend:
# healthy women [1] = experiment: Clinical trial of contraceptive effectiveness of a transdermal patch (% of women pregnant by weight or BMI category); format: in vivo; conditions: 120 μg/d LNG + 30 μg/d EE patch, 13 cycles (one year)
# From the text: To obtain the required data that would allow us to determine the personalized dosage of progestin required for each woman, we performed a clinical trial which is shown below as Example 1. When administered 120 micrograms per day of levonorgestrel (LNG), the number of women in each body weight category and the percent of the women in each category that became pregnant over a period of one year is shown in Table 1 and graphically depicted in FIG. 1.
# In a clinical trial, 2032 healthy women, aged 18 and over, were enrolled in 102 investigative sites in the US. It was an open label, 13 cycle trial (one year) to study the effectiveness of a transdermal patch delivering 120 μg per day of levonorgestrel (LNG) and 30 μg per day of ethinyl estradiol (EE). The treatment regimen for each cycle was three consecutive 7-day patches (21 days) followed by one patch-free week.
# The women enrolled in the different weight categories (in pounds) are shown in the second column of Table 1.
# The percentage of women that became pregnant over the 13 cycle period is shown in column 3 of Table 1. A graph of the percentage of women that became pregnant in each weight category is also graphically illustrated in FIG. 1.
# The same analysis was performed using the BMI of the women enrolled in the trial.
# healthy women [2] = experiment: LNG level and required dose calculated from the trial's pregnancy rates (equations 2-4); format: in vivo; conditions: for LNG Level / Required Dose: 30 μg/day EE; for LNG Required Dose: range for pregnancy rates between 3% and 1.5%, EE 30 ug/day
# From the text: There is an important unmet need pertaining to the determination of the amount of progestin required to provide contraceptive effectiveness to all women based on their BMI or body weight. Without intending to be bound to a particular understanding of mechanism of action, this invention is premised in part on the understanding that contraceptive effectiveness is based on the principle that there is a physical reaction or binding of a drug to its receptor and that therefore drug concentration will play an important part in contraceptive effectiveness. Further, by knowing the effect of a progestin amount (drug concentration) on contraceptive effectiveness on different BMI or body weight women, we can determine the amounts needed to provide effectiveness for any woman of known BMI or body weight. Given that contraceptive hormones interact reversibly with their receptors and assuming the resultant effect is proportional to the receptors occupied, a relationship between the effect and the free concentration of drug can be written as (Goodman and Gilman's Pharmaceutical Basis of Therapeutics, 8th edition, p. 44) Effect=Maximal effect (D)/(Kd+D) (equation 1) Where D is the concentration of the circulating free drug and Kd is the dissociation constant for the drug-drug receptor complex, i.e., the ratio of the rate constants of the forward and dissociation binding reactions. The steady state concentration D of the circulating free drug in the plasma is correlated to the dosage rate, by the equation (Goodman and Gilman's Pharmaceutical Basis of Therapeutics, 8th edition, p. 21), Dosage Rate=CL×D (CL is the clearance and it is constant for any specific drug). Therefore D=Dosage rate/CL. Substituting this in equation 1 one obtains Effect=Maximal effect×Dosage rate/CL/(Kd+Dosage rate/CL) (equation 2) […] Note that when equation 3 is substituted into equation 2 the clearance CL cancels out and is not involved in the calculations. Using the above formulas and isolating for D yields this equation: D=(Kd*Effect)/(1−Effect) (equation 4) […] They represent the relative dosage compared to that of the women in the 90 to 120 pound category (i.e. those that had 1.5% pregnancy rate). […] Therefore, D=(1.827*0.973)/(0.027) (equation 5) D=67 μg/day (equation 6) Required Dose=120×120/67=215 (equation 7). We consider the maximum acceptable percent pregnancy for 100 women over a period of one year to be 3%. […] The same analysis can be performed using the BMI of the women. […] The same analysis as performed for the required dosage based on women's body weight was performed using BMI and the data are shown in Tables 4 and 5 and plotted in FIG. 4. Although it may be easier for the medical practitioner to use the body weight of the subject in the treatment process, they can also use the BMI. It is therefore another object of the invention to treat women in a personalized manner depending on their BMI.
# [3] = cited from earlier work
# [4] = 1.5% pregnancy rate, BMI >17.5 ≤ 22.5
# [5] = 1.5% pregnancy rate, BMI >22.5 ≤ 27.5
# [6] = 1.5% pregnancy rate, BMI >27.5 ≤ 32.5
# [7] = 1.5% pregnancy rate, BMI >32.5 ≤ 37.5
# [8] = 1.5% pregnancy rate, BMI >37.5 ≤ 42.5
# [9] = 1.5% pregnancy rate, BMI >42.5 ≤ 47.5
# [10] = 1.5% pregnancy rate, BMI >47.5 ≤ 52.5
# [11] = 1.5% pregnancy rate, weight 90 ≥ W <120 lbs
# [12] = 1.5% pregnancy rate, weight 120 ≥ W <150 lbs
# [13] = 1.5% pregnancy rate, weight 150 ≥ W <180 lbs
# [14] = 1.5% pregnancy rate, weight 180 ≥ W <210 lbs
# [15] = 1.5% pregnancy rate, weight 210 ≥ W <240 lbs
# [16] = 1.5% pregnancy rate, weight 240 ≥ W <270 lbs
# [17] = 1.5% pregnancy rate, weight 270 ≥ W lbs
# [18] = 3% pregnancy rate, BMI >17.5 ≤ 22.5
# [19] = 3% pregnancy rate, BMI >22.5 ≤ 27.5
# [20] = 3% pregnancy rate, BMI >27.5 ≤ 32.5
# [21] = 3% pregnancy rate, BMI >32.5 ≤ 37.5
# [22] = 3% pregnancy rate, BMI >37.5 ≤ 42.5
# [23] = 3% pregnancy rate, BMI >42.5 ≤ 47.5
# [24] = 3% pregnancy rate, BMI >47.5 ≤ 52.5
# [25] = 3% pregnancy rate, weight 90 ≥ W <120 lbs
# [26] = 3% pregnancy rate, weight 120 ≥ W <150 lbs
# [27] = 3% pregnancy rate, weight 150 ≥ W <180 lbs
# [28] = 3% pregnancy rate, weight 180 ≥ W <210 lbs
# [29] = 3% pregnancy rate, weight 210 ≥ W <240 lbs
# [30] = 3% pregnancy rate, weight 240 ≥ W <270 lbs
# [31] = 3% pregnancy rate, weight 270 ≥ W lbs
smiles,measurement,setting,value
"C#C[C@]1(O)CC[C@H]2[C@@H]3CCC4=CC(=O)CC[C@@H]4[C@H]3CC[C@@]21CC [LNG, levonorgestrel]",% of pregnancies,healthy women [1]; weight category >90 but ≤ 120 pounds,1.5%
same,% of pregnancies,healthy women [1]; weight category >120 but ≤ 150 pounds,2.66%
same,LNG Level,healthy women [2]; [4],74.7 µg/day
same,Required Dose,healthy women [2]; [4],192 µg/day
same,LNG Level,healthy women [2]; [5],52.7 µg/day
same,Required Dose,healthy women [2]; [5],273 µg/day
same,LNG Level,healthy women [2]; [6],67.1 µg/day
same,Required Dose,healthy women [2]; [6],215 µg/day
same,LNG Level,healthy women [2]; [7],41.1 µg/day
same,Required Dose,healthy women [2]; [7],350 µg/day
same,LNG Level,healthy women [2]; [8],26.6 µg/day
same,Required Dose,healthy women [2]; [8],541 µg/day
same,LNG Level,healthy women [2]; [9],38.9 µg/day
same,Required Dose,healthy women [2]; [9],370 µg/day
same,LNG Level,healthy women [2]; [10],25.6 µg/day
same,Required Dose,healthy women [2]; [10],563 µg/day
same,LNG Level,healthy women [2]; [11],120.0 µg/day
same,Required Dose,healthy women [2]; [11],120 µg/day
same,LNG Level,healthy women [2]; [12],67 µg/day and 66.9 µg/day
same,Required Dose,healthy women [2]; [12],215 µg/day and 210 µg/day
same,LNG Level,healthy women [2]; [13],46.1 µg/day
same,Required Dose,healthy women [2]; [13],312 µg/day
same,LNG Level,healthy women [2]; [14],39.6 µg/day
same,Required Dose,healthy women [2]; [14],364 µg/day
same,LNG Level,healthy women [2]; [15],45.4 µg/day
same,Required Dose,healthy women [2]; [15],317 µg/day
same,LNG Level,healthy women [2]; [16],31.5 µg/day
same,Required Dose,healthy women [2]; [16],457 µg/day
same,LNG Level,healthy women [2]; [17],34.1 µg/day
same,Required Dose,healthy women [2]; [17],422 µg/day
same,LNG Level,healthy women [2]; [18],152.0 µg/day
same,Required Dose,healthy women [2]; [18],95 µg/day
same,LNG Level,healthy women [2]; [19],106.9 µg/day
same,Required Dose,healthy women [2]; [19],135 µg/day
same,LNG Level,healthy women [2]; [20],136.1 µg/day
same,Required Dose,healthy women [2]; [20],106 µg/day
same,LNG Level,healthy women [2]; [21],83.3 µg/day
same,Required Dose,healthy women [2]; [21],173 µg/day
same,LNG Level,healthy women [2]; [22],53.8 µg/day
same,Required Dose,healthy women [2]; [22],267 µg/day
same,LNG Level,healthy women [2]; [23],79 µg/day
same,Required Dose,healthy women [2]; [23],182 µg/day
same,LNG Level,healthy women [2]; [24],51.8 µg/day
same,Required Dose,healthy women [2]; [24],278 µg/day
same,LNG Level,healthy women [2]; [25],241.7 µg/day
same,Required Dose,healthy women [2]; [25],59 µg/day
same,LNG Level,healthy women [2]; [26],135.6 µg/day
same,Required Dose,healthy women [2]; [26],104 µg/day
same,LNG Level,healthy women [2]; [27],93.5 µg/day
same,Required Dose,healthy women [2]; [27],154 µg/day
same,LNG Level,healthy women [2]; [28],80.3 µg/day
same,Required Dose,healthy women [2]; [28],179 µg/day
same,LNG Level,healthy women [2]; [29],92.0 µg/day
same,Required Dose,healthy women [2]; [29],156 µg/day
same,LNG Level,healthy women [2]; [30],63.8 µg/day
same,Required Dose,healthy women [2]; [30],226 µg/day
same,LNG Level,healthy women [2]; [31],69.2 µg/day
same,Required Dose,healthy women [2]; [31],208 µg/day
same,LNG Required Dose,healthy women [2]; BMI >17.5 ≤ 22.5,95 to 192 µg/day
same,LNG Required Dose,healthy women [2]; BMI >22.5 ≤ 27.5,135 to 273 µg/day
same,LNG Required Dose,healthy women [2]; BMI >27.5 ≤ 32.5,106 to 215 µg/day
same,LNG Required Dose,healthy women [2]; BMI >32.5 ≤ 37.5,173 to 350 µg/day
same,LNG Required Dose,healthy women [2]; BMI >37.5 ≤ 42.5,267 to 541 µg/day
same,LNG Required Dose,healthy women [2]; BMI >42.5 ≤ 47.5,182 to 370 µg/day
same,LNG Required Dose,healthy women [2]; BMI >47.5 ≤ 52.5,278 to 563 µg/day
same,increase of free LNG circulating in the plasma,[3]; for every 10 μg per day of EE delivered,300 picograms per ml
same,approximate steady state level of LNG,[3]; plasma,~1500 picograms LNG per ml
